Data reported in patent US20210139528A1, “CRYSTALLINE FORMS OF OBETICHOLIC ACID” (INTERCEPT PHARMACEUTICALS, INC., priority 2017, published 2021).
Where a name gives a salt, the structure may show the parent alone.

Columns and labels:
[1] = Storage at elevated temperature/humidity, solid form checked by XRPD
[2] = Gravimetric Vapor Sorption (GVS); format: physicochemical; details: for GVS water uptake: 0-90% RH range, about 25° C.; for XRPD post GVS (form recovered after the experiment): after GVS cycle 0-90% RH
Protocol: Sorption isotherms were obtained using a SMS DVS Intrinsic moisture sorption analyzer, controlled by DVS Intrinsic Control software v1.0.1.2 (or v 1.0.1.3). The sample temperature was maintained at about 25° C. by the instrument controls. The humidity was controlled by mixing streams of dry and wet nitrogen, with a total flow rate of about 200 mL/min. The relative humidity was measured by a calibrated Rotronic probe (dynamic range of about 1.0-100% RH), located near the sample. The weight change, (mass relaxation) of the sample as a function of % RH was constantly monitored by the microbalance (accuracy ±0.005 mg). Typically, about 18-20 mg of sample was placed in a tared mesh stainless steel basket under ambient conditions. The sample was loaded and unloaded at about 40% RH and about 25° C. (typical room conditions). A moisture sorption isotherm was performed as outlined in Table 1 (2 scans giving 1 complete cycle). The standard isotherm was performed at about 25° C. at about 10% RH intervals over a 0-90% RH range. Data analysis was carried out using Microsoft Excel using DVS Analysis Suite v6.2 (or 6.1 or 6.0). The sample was recovered after completion of the isotherm and re-analysed by XRPD.

Row | Stability on storage at 25° C./97% RH (XRPD) ([1]; 25° C./97% RH, 7 days) | Stability on storage at 40° C./75% RH (XRPD) ([1]; 40° C./75% RH, 7 days) | Stability on storage at 40° C./75% RH (XRPD), screening sample ([1]; screening sample, 40° C./75% RH, 23 days) | GVS water uptake [2] | GVS water uptake ([2]; listed as cocrystal) | XRPD post GVS (form recovered after the experiment) [2] | XRPD post GVS (form recovered after the experiment) ([2]; listed as cocrystal) | Compound
1 | amorphous | unchanged | possible form change | – | – | – | – | CC[C@H]1[C@@H](O)[C@@H]2[C@H](CC[C@]3(C)[C@@H]([C@H](C)CCC(=O)O)CC[C@@H]23)[C@@]2(C)CC[C@@H](O)C[C@@H]12 [obeticholic acid monoammonium salt]
2 | – | – | – | ca. 1 % w/w | 1% water uptake | no change | Unchanged by XRPD | Obeticholic acid-ursodeoxycholic acid (2:1) cocrystal [OCA:UDCA cocrystal]
